This is an account of results in patent US10787441B2, “Hepatitis C virus inhibitors” (priority 2016, dated 2020).

Where two headings read alike, the source gives them in different places.

Type in all cases: cell-based, Hepatitis C virus
In experiment [1] the test system is HCV genotype 1a H77 strain subgenomic luciferase replicon. Put plainly: HCV replicon assay, genotype 1a. As to the method:
(§1) The HCV luciferase replicon assay measures the ability of a test compound to inhibit HCV replication in cell culture after 3 days of treatment in a human hepatoma cell line (Huh-7) bearing an HCV replicon containing a luciferase-neomycin phosphotransferase fusion gene. The inhibition of HCV replication was measured by quantification of luciferase protein expression. Briefly, Huh-7 cells containing either the HCV genotype 1a H77 strain or genotype 1b Con1 strain subgenomic luciferase replicon (H1a-luc or Zluc, respectively) were grown in DMEM containing glucose, L-glutamine and sodium pyruvate, 10% fetal bovine serum (FBS), 100 IU/mL penicillin, 100 μg/mL streptomycin, 2 mM GlutaMAX, non-essential amino acids and 0.25 (H1a-luc) or 0.5 (Zluc) mg/mL G418. GlutaMAX was obtained from Invitrogen, Corp.; all other media reagents were obtained from Mediatech, Inc. For dose-response testing, the cells were seeded in 96-well plates at 1×10^4 (H1a-luc) or 7.5×10^3 (Zluc) cells/well in a volume of 50 μL, and incubated at 37° C./5% CO2. Three hours after plating, 50 μL of ten 5-fold serial dilutions of compound were added, and cell cultures were incubated at 37° C./5% CO2 for 72 hours. In all cases, Huh-7 cells lacking the HCV replicon served as negative control. To assess luciferase expression, the media/compound was removed from the plates and ONE-glo Luciferase assay reagent (Promega) was added to each well. The assay plates were shaken for 3 minutes at room temperature and luciferase activity for each well was measured with a 1 sec read time on the Victor^3V multilabel counter using a 700 nm cut-off filter (Perkin Elmer). EC50 values were calculated from dose response curves from the resulting best-fit equations determined by Microsoft Excel and XLfit 4.1 software.
Background: Replicon systems follow genome replication, usually without infectious particles.

In experiment [2] the test system is HCV 1aY93H mutant replicon. Put plainly: HCV replicon assay, genotype 1a Y93H mutant. How it is done: General procedure: The luciferase replicon transient transfection assay measures the ability of a test compound to inhibit the replication of a transiently-transfected HCV luciferase-bearing wild-type or mutant replicon in cured human hepatoma cells (Huh7.5). The inhibition of HCV replication was measured by quantification of luciferase protein expression. This assay has been validated using a panel of genotype 1a and 1b replicons bearing mutations known to be associated with resistance to BMS-790052. Briefly, subconfluent Huh7.5 cells were electroporated with 10 μg of wild-type or mutant luciferase-bearing HCV replicon RNA. The cells were then seeded in 96-well opaque white plates at 3×10^4 cells/well in 150 μL/well and incubated for 4 hrs at 37° C./5% CO2. Ten 1:5 serial dilutions of each test compound were made in media (DMEM containing glucose, L-glutamine and sodium pyruvate, 10% fetal bovine serum, 100 IU/mL penicillin, 100 μg/mL streptomycin, 2 mM GlutaMAX, and 1×MEM non-essential amino acids (Mediatech, Inc. and Invitrogen Corp.)) at concentrations that were 4× higher than the final concentrations to be tested and 50 μL/well was added to the transfected cells. Untreated, mock-transfected cells served as a negative control of luciferase expression. The plates were incubated at 37° C./5% CO2 for 4 days whereupon the media was removed and 50 μL of ONE-glo luciferase substrate (Promega) was added to each well. The plates were agitated on a rotating platform at room temperature for 3 min and read in a Victor^3V microplate reader (Perkin-Elmer) using a 700 nm cut-off filter with a 1 sec read time. EC50 values were calculated from dose response curves from the resulting best-fit equations determined by Microsoft Excel and XLfit 4.1 software.

In experiment [3] the test system is HCV 2b. Put plainly: HCV replicon assay, genotype 2b.
Experiment [4] deals with HCV genotype 3a NS5A within the 1b-replicon. Put plainly: HCV replicon assay, genotype 3a (NS5A intergenotypic stable cell line).
Text: The nucleotide sequences of the NS5A region of genotype 2a (GenBank Accession # AB047639), genotype 3a (GenBank Accession # D17763), and genotype 4a (GenBank Accession # DQ418788) were synthesized by an outside vendor. The NS5A region of each of these genotypes included the first 11 amino acids of the protease recognition sequence of genotype 1b, as well as the last 10 amino acids of genotype 1b. The NS5A gene cassettes were excised with site specific restriction endonucleases and ligated into a ZS11-luciferase genotype 1b backbone (backbone contains the genotype 1b NS3 protease, NS4a, NS4b, and NS5b coding regions) with similarly cut restriction enzyme sites. Thus, the newly constructed plasmid contains a genotype 2a-, 3a- or 4a-specific NS5A gene within the 1b-replicon.
These new intergenotypic plasmids were used to establish stable cell lines. RNA was generated from the NS5A intergenotypic plasmids and used in conjunction with a lipofectin reagent to transfect a cured Huh7 cell line. Transfected cells were selected for with G418. After selection has occurred the stable cell lines were propagated, tested for luciferase activity, and RT-PCR with genotype specific primers (either 1a, 2a, 3a, or 4a). Stable cell lines containing the intergenotypic replicon were then fully sequenced and analyzed for proper expression of NS3, NS5A and NS5B proteins.
Drug titration analysis was performed using the luciferase replicon assay described herein.
as §1

[5] abbreviates: Hepatitis C virus, read-out: 1a IC50 (nM), HCV genotype 1a.
[6] abbreviates: Hepatitis C virus, read-out: 1aY93H IC50 (nM), HCV genotype 1a, Y93H mutant.
[7] abbreviates: read-out: 2b IC50, HCV genotype 2b.
Where [8] appears, read: read-out: 1a IC50, HCV genotype 1a.
Setting [9] is: read-out: 1aY93H IC50, HCV genotype 1a, Y93H mutant.
[10] abbreviates: read-out: 3a IC50, HCV genotype 3a.
[11] abbreviates: Hepatitis C virus, read-out: 2b IC50 (nM), HCV genotype 2b.

Usually IC50 stands for the concentration that gives 50% inhibition. In the case of `CCC1c2ccc(-c3cnc([C@@H]4CCCN4C(=O)[C@@H](NC(=O)OC)C(C)C)[nH]3)cc2Oc2ccc3cc(-c4cnc([C@@H]5CCCN5C(=O)[C@@H](NC(=O)OC)C(C)C)[nH]4)ccc3c21` (single isomer, unassigned) [Compound 5], the half-maximal inhibitory concentration (IC50) was found to be 0.005 nM in experiment [1] (setting [5]); 11.7 nM in experiment [2] (setting [6]); 0.784 nM in experiment [3] (setting [7]); 1.08 nM in experiment [4] (Hepatitis C virus, read-out: 3a IC50 (nM), HCV genotype 3a).
With `CCC1c2ccc(-c3cnc([C@@H]4CCCN4C(=O)[C@@H](NC(=O)OC)C(C)C)[nH]3)cc2Oc2ccc3cc(-c4cnc([C@@H]5CCCN5C(=O)[C@@H](NC(=O)OC)C(C)C)[nH]4)ccc3c21` (single isomer, unassigned) [Compound 6], the IC50 was 0.0027 nM in experiment [1] (setting [8]), 15 nM in experiment [2] (setting [9]), 12.8 nM in experiment [3] (setting [7]) and 1.72 nM in experiment [4] (setting [10]).
As to `CCC1c2ccc(-c3cnc([C@@H]4CCCN4C(=O)[C@@H](NC(=O)OC)C4CCOCC4)[nH]3)cc2Oc2ccc3cc(-c4cnc([C@@H]5CCCN5C(=O)[C@@H](NC(=O)OC)C5CCOCC5)[nH]4)ccc3c21` (single isomer, unassigned) [Compound 14], the concentration for half-maximal inhibition (IC50) amounted to 0.0042 nM in experiment [1] (setting [8]), 0.221 nM in experiment [2] (setting [9]) and 0.034 nM in experiment [4] (setting [10]).
Turning to `O=c1c2ccc(-c3cnc([C@@H]4CC(F)CN4)[nH]3)cc2oc2ccc3cc(-c4cnc([C@@H]5C[C@@H](F)CN5)[nH]4)ccc3c12` (stereo in doubt) [Compound 18, 3-{2-[(2S,4R)-4-fluoropyrrolidin-2-yl]-1H-imidazol-5-yl}-9-{2-[(2S,4S)-4-fluoropyrrolidin-2-yl]-1H-imidazol-5-yl}-12H-benzo[a]xanthen-12-one], the concentration for half-maximal inhibition (IC50) in experiment [1] (setting [5]) turned out to be 208 nM; in experiment [2] (setting [6]), 147 nM.
In the same order, the values of `O=c1c2cc(-c3cnc([C@@H]4CC(F)CN4)[nH]3)ccc2oc2c(F)c3ccc(-c4cnc([C@@H]5CC(F)CN5)[nH]4)cc3cc12` (stereo in doubt) [Compound 19, 6-fluoro-2,9-bis{2-[(2S,4S)-4-fluoropyrrolidin-2-yl]-1H-imidazol-5-yl}-12H-benzo[b]xanthen-12-one] are 745 nM and 1390 nM.
Consider `CC(C)(C)NC(=O)N1CC(F)C[C@H]1c1ncc(-c2ccc3c(ccc4oc5cc(-c6cnc([C@@H]7C[C@@H](F)CN7C(=O)NC(C)(C)C)[nH]6)ccc5c(=O)c43)c2)[nH]1` (stereo in doubt) [Compound 21, (2S,4R,2′S,4′S)-2,2′-[(12-oxo-12H-benzo[a]xanthene-3,9-diyl)bis(1H-imidazole-5,2-diyl)]bis(N-tert-butyl-4-fluoropyrrolidine-1-carboxamide)], for which the concentration for half-maximal inhibition (IC50) in experiment [1] (setting [5]) worked out at 63.1 nM; in experiment [2] (setting [6]), 96.2 nM; in experiment [3] (setting [11]), 505 nM.
Take `CC(C)(C)OC(=O)N1CC(F)C[C@H]1c1ncc(-c2ccc3c(ccc4oc5cc(-c6cnc([C@@H]7C[C@@H](F)CN7C(=O)OC(C)(C)C)[nH]6)ccc5c(=O)c43)c2)[nH]1` (stereo in doubt) [Compound 22, di-tert-butyl (2S,4R,2′S,4′S)-2,2′-[(12-oxo-12H-benzo[a]xanthene-3,9-diyl)bis(1H-imidazole-5,2-diyl)]bis(4-fluoropyrrolidine-1-carboxylate)]: the IC50 in experiment [1] (setting [5]) came out at 291 nM; in experiment [2] (setting [6]), 717 nM.
On to `CC(C)(C)NC(=O)N1CC(F)C[C@H]1c1ncc(-c2ccc3c(F)c4oc5ccc(-c6cnc([C@@H]7CC(F)CN7C(=O)NC(C)(C)C)[nH]6)cc5c(=O)c4cc3c2)[nH]1` (stereo in doubt) [Compound 23, (2S,4S,2′S,4′S)-2,2′-[(6-fluoro-12-oxo-12H-benzo[b]xanthene-2,9-diyl)bis(1H-imidazole-5,2-diyl)]bis(N-tert-butyl-4-fluoropyrrolidine-1-carboxamide)], for which the IC50 is 53.5 nM in experiment [1] (setting [5]), 436 nM in experiment [2] (setting [6]) and no less than 1000 nM in experiment [3] (setting [11]).
As for `CC(C)(C)OC(=O)N1CC(F)C[C@H]1c1ncc(-c2ccc3c(F)c4oc5ccc(-c6cnc([C@@H]7CC(F)CN7C(=O)OC(C)(C)C)[nH]6)cc5c(=O)c4cc3c2)[nH]1` (stereo in doubt) [Compound 24, di-tert-butyl (2S,4S,2′S,4′S)-2,2′-[(6-fluoro-12-oxo-12H-benzo[b]xanthene-2,9-diyl)bis(1H-imidazole-5,2-diyl)]bis(4-fluoropyrrolidine-1-carboxylate)], the IC50 in experiment [1] (setting [5]) is 425 nM; in experiment [2] (setting [6]) it was 2460 nM.
On to `COC(=O)N[C@H](C(=O)N1CCC[C@@H]1c1ncc(-c2ccc3oc4c(ccc5cc(-c6cnc([C@H]7CCCN7C(=O)[C@H](NC(=O)OC)C(C)C)[nH]6)ccc54)c(=O)c3c2)[nH]1)C(C)C` [Compound 1, methyl [(1R)-1-({(2R)-2-[5-(9-{2-[(2R)-1-{(2S)-2-[(methoxycarbonyl)amino]-3-methylbutanoyl}pyrrolidin-2-yl]-1H-imidazol-5-yl}-7-oxo-7H-benzo[c]xanthen-3-yl)-1H-imidazol-2-yl]pyrrolidin-1-yl}carbonyl)-2-methylpropyl]carbamate], for which the half-inhibitory concentration (IC50) in experiment [1] (setting [5]) was determined as 0.0204 nM; in experiment [2] (setting [6]) it was 66 nM.
The like results for `COC(=O)N[C@H](C(=O)N1CCC[C@H]1c1ncc(-c2ccc3c(c2)C(C)c2ccc4cc(-c5cnc([C@@H]6CCCN6C(=O)[C@@H](NC(=O)OC)C(C)C)[nH]5)ccc4c2O3)[nH]1)C(C)C` (stereo partly drawn) [Compound 4, methyl [(1S)-1-({(2S)-2-[5-(3-{2-[(2S)-1-{(2S)-2-[(methoxycarbonyl)amino]-3-methylbutanoyl}pyrrolidin-2-yl]-1H-imidazol-5-yl}-7-methyl-7H-benzo[c]xanthen-9-yl)-1H-imidazol-2-yl]pyrrolidin-1-yl}carbonyl)-2-methylpropyl]carbamate] were, in that order, 0.0057 nM and 48.8 nM.
In the case of `COC(=O)N[C@H](C(=O)N1CCC[C@H]1c1ncc(-c2ccc3c(c2)Oc2ccc4cc(-c5cnc([C@@H]6CCCN6C(=O)[C@@H](NC(=O)OC)C(C)C)[nH]5)ccc4c2C3(C)C)[nH]1)C(C)C` [Compound 7, methyl [(1S)-1-({(2S)-2-[5-(3-{2-[(2S)-1-{(2S)-2-[(methoxycarbonyl)amino]-3-methylbutanoyl}pyrrolidin-2-yl]-1H-imidazol-5-yl}-12,12-dimethyl-12H-benzo[a]xanthen-9-yl)-1H-imidazol-2-yl]pyrrolidin-1-yl}carbonyl)-2-methylpropyl]carbamate], the IC50 turned out to be 0.0029 nM in experiment [1] (setting [5]), 17.8 nM in experiment [2] (setting [6]) and 11 nM in experiment [3] (setting [11]).
